Data: patent US5840684A, “Glycopeptide antibiotic derivatives” (Eli Lilly and Company, priority 1995, dated 1998)
Values after ≈ are worked out from the molar mass of the structure shown.

Legend:
[1] = system: vancomycin-resistant enterococci; experiment: broth micro-dilution, mean geometric MIC; format: cell-based, Enterococcus faecium and Enterococcus faecalis; conditions: enterococci, 24-hour incubation
[2] = system: Enterococcus gallinarum 245; experiment: broth micro-dilution MIC; format: cell-based; conditions: Enterococcus gallinarum 245
Procedure: (§1) The formula I compounds have in vitro and in vivo activity against Gram-positive pathogenic bacteria. The MIC's were determined using a standard broth micro-dilution assay.

Entercoccus faecium 2041 = experiment: broth micro-dilution MIC; format: cell-based; conditions: Entercoccus faecium 2041
Procedure: as §1

[3] = system: Streptococcus pneumoniae P1; experiment: broth micro-dilution MIC; format: cell-based
Procedure: as §1

[4] = system: Staphylococcus haemolyticus 105; experiment: broth micro-dilution MIC; format: cell-based
Procedure: as §1

[5] = system: Staphylococcus haemolyticus 415; experiment: broth micro-dilution MIC; format: cell-based
Procedure: as §1

[6] = system: Staphylococcus epidermidis 270; experiment: broth micro-dilution MIC; format: cell-based
Procedure: as §1

[7] = system: Haemophilus influenzae RD; experiment: broth micro-dilution MIC; format: cell-based; conditions: Haemophilus influenzae RD
Procedure: as §1

Entercoccus faecium 180 = experiment: broth micro-dilution MIC; format: cell-based; conditions: Entercoccus faecium 180
Procedure: as §1

[8] = system: Staphylococcus aureus SA1199B; format: cell-based
Procedure: (§2) The MIC's were determined using a standard broth micro-dilution assay.

[9] = system: vancomycin-susceptible enterococci; experiment: broth micro-dilution, mean geometric MIC; format: cell-based, Enterococcus faecium and Enterococcus faecalis; conditions: enterococci, 24-hour incubation
[10] = system: Staphylococcus aureus SA1199; experiment: broth micro-dilution MIC; format: cell-based
Procedure: as §2

[11] = system: Staphylococcus aureus 446; experiment: broth micro-dilution MIC; format: cell-based
Procedure: as §2

[12] = system: Staphylococcus aureus X778; experiment: broth micro-dilution MIC; format: cell-based
Procedure: as §2

[13] = system: Staphylococcus aureus 491; experiment: broth micro-dilution MIC; format: cell-based
Procedure: as §2

[14] = system: Entercoccus faecium 180-1; experiment: broth micro-dilution MIC; format: cell-based
Procedure: as §2

Entercoccus faecium 276 = experiment: broth micro-dilution MIC; format: cell-based
Procedure: as §2

[15] = system: Streptococcus pyogenes C203; experiment: broth micro-dilution MIC; format: cell-based
Procedure: as §2

[16] = system: Staphylococcus aureus 447; experiment: broth micro-dilution MIC; format: cell-based
Procedure: as §2

[17] = system: Staphylococcus aureus SA1199A; experiment: broth micro-dilution MIC; format: cell-based
Procedure: as §2

[18] = system: Staphylococcus aureus S13E; format: cell-based
Procedure: as §2

[19] = system: Staphylococcus aureus X400; experiment: broth micro-dilution MIC; format: cell-based
Procedure: as §2

[20] = system: Staphylococcus aureus 489; experiment: broth micro-dilution MIC; format: cell-based
Procedure: as §2

SMILES | mean geometric MIC, Vancomycin Resistant Strains [1] [µg/mL] | MIC [2] [µg/mL] | MIC (Entercoccus faecium 2041) [µg/mL] | MIC [3] [µg/mL] | MIC [4] [µg/mL] | MIC [5] [µg/mL] | MIC [6] [µg/mL] | MIC [7] [µg/mL] | MIC (Entercoccus faecium 180) [µg/mL] | MIC [8] [µg/mL] | mean geometric MIC, Vancomycin Sensitive Strains [9] [µg/mL] | MIC [10] [µg/mL] | MIC [11] [µg/mL] | MIC [12] [µg/mL] | MIC [14] [µg/mL] | MIC (Entercoccus faecium 276) [µg/mL] | MIC [15] [µg/mL] | MIC [16] [µg/mL] | MIC [17] [µg/mL] | MIC [18] [µg/mL] | also measured
CNC(CC(C)C)C(=O)NC1C(=O)NC(CC(N)=O)C(=O)NC2C(=O)NC3C(=O)NC(C(=O)NC(C(=O)O)c4cc(O)cc(O)c4-c4cc3ccc4O)C(OC3CC(C)(N)C(O)C(C)O3)c3ccc(c(Cl)c3)Oc3cc2cc(c3OC2OC(CO)C(O)C(O)C2OC2CC(C)(NCCCc3ccc(OC)cc3)C(O)C(C)O2)Oc2ccc(cc2Cl)C1O (centres unmarked) [Compound 175] | 9.5 | 4 (≈ 2.3 µM) | ≤ 0.06 | 0.5 (≈ 0.287 µM) | 2 (≈ 1.15 µM) | 4 (≈ 2.3 µM) | 0.5 (≈ 0.287 µM) | 16 (≈ 9.19 µM) | 1 (≈ 0.574 µM) | ≤ 0.06 | 0.22 | ≤ 0.06 | 1 (≈ 0.574 µM) | 0.5 (≈ 0.287 µM) | ≤ 0.06 | ≤ 0.06 | 0.5 (≈ 0.287 µM) | 1 (≈ 0.574 µM) | 0.5 (≈ 0.287 µM) |  | MIC [13]: 0.5 µg/mL (≈ 0.287 µM)
CNC(CC(C)C)C(=O)NC1C(=O)NC(CC(N)=O)C(=O)NC2C(=O)NC3C(=O)NC(C(=O)NC(C(=O)O)c4cc(O)cc(O)c4-c4cc3ccc4O)C(OC3CC(C)(N)C(O)C(C)O3)c3ccc(c(Cl)c3)Oc3cc2cc(c3OC2OC(CO)C(O)C(O)C2OC2CC(C)(NCc3ccc(-c4ccc(O)cc4)cc3)C(O)C(C)O2)Oc2ccc(cc2Cl)C1O (centres unmarked) [Compound 20] | 4.8 |  | ≤ 0.06 | ≤ 0.06 | 8 (≈ 4.51 µM) | 4 (≈ 2.25 µM) | 2 (≈ 1.13 µM) | 8 (≈ 4.51 µM) | 1 (≈ 0.563 µM) | 0.5 (≈ 0.282 µM) | 0.38 | 2 (≈ 1.13 µM) | 0.5 (≈ 0.282 µM) |  | ≤ 0.06 |  | ≤ 0.06 | 4 (≈ 2.25 µM) | ≤ 0.06 | ≤ 0.06 | MIC [19]: 0.5 µg/mL (≈ 0.282 µM); MIC [20]: 0.5 µg/mL (≈ 0.282 µM)
CNC(CC(C)C)C(=O)NC1C(=O)NC(CC(N)=O)C(=O)NC2C(=O)NC3C(=O)NC(C(=O)NC(C(=O)O)c4cc(O)cc(O)c4-c4cc3ccc4O)C(OC3CC(C)(N)C(O)C(C)O3)c3ccc(c(Cl)c3)Oc3cc2cc(c3OC2OC(CO)C(O)C(O)C2OC2CC(C)(NCc3ccc(Oc4ccccc4[N+](=O)[O-])cc3)C(O)C(C)O2)Oc2ccc(cc2Cl)C1O (centres unmarked) [Compound 70] | 2.0 | 2 (≈ 1.1 µM) | ≤ 0.06 |  | 2 (≈ 1.1 µM) | 2 (≈ 1.1 µM) | 0.25 (≈ 0.137 µM) | 16 (≈ 8.79 µM) | 0.5 (≈ 0.275 µM) | ≤ 0.06 | 0.092 | ≤ 0.06 |  | ≤ 0.06 | ≤ 0.06 | ≤ 0.06 |  | 0.5 (≈ 0.275 µM) | ≤ 0.06 | ≤ 0.06 | MIC [19]: ≤ 0.06 µg/mL; MIC [20]: ≤ 0.06 µg/mL
CNC(CC(C)C)C(=O)NC1C(=O)NC(CC(N)=O)C(=O)NC2C(=O)NC3C(=O)NC(C(=O)NC(C(=O)O)c4cc(O)cc(O)c4-c4cc3ccc4O)C(OC3CC(C)(N)C(O)C(C)O3)c3ccc(c(Cl)c3)Oc3cc2cc(c3OC2OC(CO)C(O)C(O)C2OC2CC(C)(NCc3cc4ccccc4s3)C(O)C(C)O2)Oc2ccc(cc2Cl)C1O (centres unmarked) [Compound 19] |  | ≤ 0.06 | ≤ 0.06 | ≤ 0.06 | 4 (≈ 2.3 µM) | 8 (≈ 4.6 µM) | 2 (≈ 1.15 µM) | 32 (≈ 18.4 µM) | 1 (≈ 0.575 µM) | 1 (≈ 0.575 µM) | 0.22 | 0.5 (≈ 0.288 µM) | 0.5 (≈ 0.288 µM) |  | ≤ 0.06 | ≤ 0.06 | ≤ 0.06 | 1 (≈ 0.575 µM) | ≤ 0.06 | ≤ 0.06 | MIC [13]: 2 µg/mL (≈ 1.15 µM)
